Reference: article PMC11129182, “Development of Inhibitors, Probes, and PROTAC Provides a Complete Toolbox to Study PARK7 in the Living Cell” (Journal of Medicinal Chemistry, 2024)
Entries after “also recorded” stand apart in the source; their conditions may differ. Where two headings read alike, the source gives them in different places. Each block holds one compound with its values, some of them ahead of it.

What was measured:
PARK7 [1] = target: T1, PARK7 (Homo sapiens, UniProt Q99497); assay: High-throughput screen of the crude compound library, PARK7 fluorescence polarization (FP) assay with FP reagent JYQ-107; format: biochemical
T1 sequence (Q99497 1-189): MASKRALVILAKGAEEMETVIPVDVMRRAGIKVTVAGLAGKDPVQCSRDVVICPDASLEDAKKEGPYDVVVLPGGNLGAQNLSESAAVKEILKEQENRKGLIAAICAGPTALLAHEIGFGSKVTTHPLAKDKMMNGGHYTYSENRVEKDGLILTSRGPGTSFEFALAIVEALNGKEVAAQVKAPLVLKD

PARK7 [2] = target: T1, PARK7; assay: Hit validation and pure-compound testing in the PARK7 FP assay with JYQ-107; format: biochemical; conditions: for inhibition at 0.25 µM: read-out: % Inhibition 0.25 µM
PARK7 [3] = target: T1, PARK7; assay: Cell-based competition assay with probe JYQ-92 in HEK293T cells; conditions: 24 h
Description: Samples were resolved by SDS-PAGE and analyzed by fluorescence scanning and Western blotting (Figure 2B). The target engagement of cellular PARK7 is reflected by the disappearance of the PARK7 labeling band in the fluorescence gel scan and by the loss of the shifted probe-labeled PARK7 band in the Western blot.
HEK293T cells were treated with the indicated concentrations of indicated inhibitors for indicated incubation time.
Figure S1. Assessment of the cell permeability of JYQ -88. (A) Structure of JYQ-92.
(B) Target engagement of JYQ-88 in HEK293T cells. HEK293T cells were incubated […]
with PARK7 probe JYQ-92 fo r 1 h at 37 °C. The reactions were stopped by the addition of NuPAGE™ LDS sample buffer (4x). Samples were resolved by SDS -PAGE using […]
fluorescence scanning on a Typhoon FLA 9500 (GE Healthcare Life Sciences) using […]
The disappearance of the JYQ-92-labeled band in […]
of JYQ-88 is used as a measurement of cellular PARK7 engagement with JYQ -88.
(§1) (1 picture or pasted object on this page, not shown here)

DUBs = assay: Activity-based DUB profiling with Rho-Ub-PA probe in HEK293T cells; format: cell-based, human; conditions: 5 µM, 24 h
Description: Figure S3. Activity evaluation of inhibitors against DUBs in HEK293T cells. (A ) Inhibitors from structure modification. (B) Inhibitors from HTS. HEK293T cells were […]
incubation with Rho- Ub-PA probe for 30 min at 37 °C. Samples were resolved by SDS - […]
and visualized by fluorescence scanning on a Typhoon FLA 9500 (GE Healthcare Life […]
Nitrocellulose membranes and Western blot analysis.
as §1

PARK7 [4] = target: T1, PARK7; conditions: read-out: IC50 (nM) DiFUMAc; 0.1 μM PARK7, 1 h preincubation, 300 μM DiFMUAc
Description: Compounds were transferred using a Labcyte Echo550 acoustic dispenser to obtain a 12-point serial dilution of 0.001–100 μM. Next, PARK7 (15 μL, final concentration 0.1 μM) was dispensed with a Biotek MultiFlowFX liquid dispenser and incubated for 1 h, followed by dispensing the substrate DiFMUAc (5 μL, final concentration 300 μM). The fluorescence intensity (FI) signal was monitored on a BMG Labtech PHERAstar plate reader (λex/em 350/450 nm) for 1 h.

PARK7 [5] = target: T1, PARK7; assay: Probe labeling of endogenous PARK7 in cells (HEK293T, A549); format: cell-based; conditions: for labeling of PARK7 in cells / cellular PARK7 labeling efficiency over time: 5 μM; for labeling of PARK7 in cells: 24 h; for cellular PARK7 labeling efficiency over time: A549 cells, indicated time points
Description: To further investigate the ability of these probes to visualize PARK7 in cells, HEK293T and A549 cells were incubated with 5 μM of these probes for 24 h, followed by cell lysis, SDS-PAGE, fluorescence scanning, and immunostaining (Supporting Information Figure S7). […] We also observed a band shift of the PARK7 protein in the samples treated with JYQ-192, JYQ-196, and JYQ-197 by immunoblot against PARK7 in A549 cells. […] Therefore, we further investigated JYQ-192, JYQ-196, and JYQ-197. To characterize their cell permeability, A549 cells were incubated with 5 μM final concentration of these probes for the indicated time points, followed by confocal microscopy and by cell lysis, SDS-PAGE, fluorescence scanning, and immunostaining. All three probes already entered the cells after 1 h incubation (Supporting Information Figure S8A). […] Besides PARK7, we observed extra bands in the fluorescence scan for both HEK293T and A549 cells and a very strong band labeling between 55 and 75 kDa in A549 cells with a 5 μM final concentration of all probes.
Despite the fact that probe JYQ-196 outperformed SulfoCy5 probes JYQ-192 and JYQ-197 in terms of the cellular PARK7 labeling efficiency, this probe still lacked specificity toward PARK7. PARK7 is known to form dimers, trimers, and even high-molecular-weight complexes under nonreducing conditions.[29],[30] […] To investigate further whether lower concentrations of JYQ-196 can decrease unspecific labeling, HEK293T and A549 cells were incubated with increased concentrations (0–10 μM) of JYQ-196 for 4 h, followed by cell lysis, SDS-PAGE, fluorescence scanning, and immunostaining (Figure 4C).
Oligos used to knockdown PARK7 were purchased from Dharmacon (Cat#: MQ-005984-00-0002). Silencing was performed in HEK293T and A549 cells as follows: for a 24-well plate format, 50 μL of siRNA (500 nM stock) was incubated with 1 μL of Dharmafect reagent 1 (Dharmacon) diluted in 50 μL of medium without supplements (total volume of 100 μL of transfection mix) with gentle shaking for 20 min at room temperature (RT). A total of 30 × 10^3 HEK293T or 50 × 10^3 cells were added to transfection mixes to a total volume of 500 μL per well and cultured for 48 h prior to incubation with 5 μM final concentration of JYQ-196 for 4 h.
HEK293T or A549 cells were incubated with indicated concentration of the probes for the indicated time points, followed by cell lysis and adding loading buffer (4x).

PARK7 [6] = target: T1, PARK7; assay: Probe labeling of purified recombinant PARK7; conditions: 1 μM PARK7, 1 h, 37 °C
Description: The ability of these probes to label and visualize PARK7 activity in vitro was evaluated by treating recombinant human PARK7 protein (1 μM) with a concentration series of the probes for 1 h at 37 °C, followed by SDS-PAGE analysis under nondenaturing conditions (without boiling and β-mercaptoethanol).
The assay was conducted in Tris-buffer (50 mM Tris-HCl, 150 mM NaCl, 2 mM TCEP, pH 7.5). PARK7 (1 μM final concentration) was incubated with different concentrations (0, 0.1, 0.5, 1, 2, 5, and 10 μM) of the indicated probes for 1 h at 37 °C. After completing the incubation time, all of the reactions were stopped by adding NuPAGE LDS sample buffer (4x).

Compound: CC(=O)N1CCN(S(=O)(=O)c2cccc(C(=O)N3CCc4nc(NC(=O)[C@@H]5CCN(C#N)C5)sc4C3)c2)CC1 [Compound 336, (R)-N-(5-(3-((4-Acetylpiperazin-1-yl)sulfonyl)benzoyl)-4,5,6,7-tetrahydrothiazolo[5,4-c]pyridin-2-yl)-1-cyanopyrrolidine-3-carboxamide]
inhibition at 1.25 µM (PARK7 [1]; 1.25 µM, crude compound library, read-out: HTS FP assay %Inhibition (1.25 µM)): 91.8% | inhibition at 0.25 µM (PARK7 [2]; crude compounds): 76.8% | inhibition at 0.5 µM (PARK7 [2]; crude compounds, 0.5 µM, read-out: % Inhibition 0.5 µM): 91.5% | inhibition at 1 µM (PARK7 [2]; crude compounds): 98.3% | % Inhibition 0.25 µM (PARK7 [2]; pure compounds): 87.6% | inhibition at 0.25 µM (PARK7 [2]; pure compounds): ~100% | inhibition at 1 µM (PARK7 [2]; pure compounds): 98.5% | concentration from which PARK7 is engaged (PARK7 [3]; HEK293T cells, 0.1–5 μM dilution series): 1 µM | inhibition of DUBs in cells (DUBs): did not show interference with the activity of any DUB

Compound: N#CN1CC[C@@H](C(=O)Nc2nc3c(s2)CN(C(=O)CN=[N+]=[N-])CC3)C1 [JYQ-88, reference compound]
inhibition at 0.25 µM (PARK7 [2]; pure compounds): 55.4% | inhibition at 1 µM (PARK7 [2]; pure compounds): 83.2% | cellular PARK7 engagement of JYQ-88 (PARK7 [3]; intact HEK293T cells, concentration series): did not show inhibition of PARK7 in cells; also recorded: poor cellular engagement | IC50 (PARK7 [4]): 120 nM

Compound: CC1=CC(C)=[N+]2C1=C(CCCCc1cn(CC(=O)N3CCN(S(=O)(=O)c4cccc(C(=O)N5CCc6nc(NC(=O)[C@@H]7CCN(C#N)C7)sc6C5)c4)CC3)nn1)c1c(C)cc(C)n1[B-]2(F)F [JYQ-191]
labeling of PARK7 in cells (PARK7 [5]; HEK293T and A549 cells): inefficient labeling of cellular PARK7 | probe concentration giving complete labeling of recombinant PARK7 (Coomassie band shift) (PARK7 [6]): 5 µM

Compound: CC[N+]1=C(/C=C/C=C/C=C2/N(CCCCCC(=O)NCCCc3cn(CC(=O)N4CCN(S(=O)(=O)c5cccc(C(=O)N6CCc7nc(NC(=O)[C@@H]8CCN(C#N)C8)sc7C6)c5)CC4)nn3)c3ccc(S(=O)(=O)[O-])cc3C2(C)C)C(C)(C)c2cc(S(=O)(=O)O)ccc21 [JYQ-192]
cellular PARK7 labeling efficiency over time (PARK7 [5]): labeled a small portion of cellular PARK7 even after 24 h incubation | labeling of PARK7 in cells (PARK7 [5]; HEK293T and A549 cells): clear band around 25 kDa | probe concentration giving complete labeling of recombinant PARK7 (Coomassie band shift) (PARK7 [6]): 2 µM

Compound: (R)-N-(5-(3-(1,2,4-Oxadiazol-3-yl)benzoyl)-4,5,6,7-tetrahydrothiazolo[5,4-c]pyridin-2-yl)-1-cyanopyrrolidine-3-carboxamide [Compound 199]
HTS FP assay %Inhibition (1.25 µM) (PARK7 [1]; 1.25 µM, crude compound library): 95.3% | % Inhibition (PARK7 [1]; HTS of crude compound library, sheet "SMILES+%Inh HTS"): 95.3% | % Inhibition 0.25 µM (PARK7 [2]; crude compounds): 81.4% | % Inhibition 0.5 µM (PARK7 [2]; crude compounds, 0.5 µM): 91.6% | % Inhibition 1 µM (PARK7 [2]; crude compounds): 98.6% | % Inhibition 0.25 µM (PARK7 [2]; pure compounds): 80.7% | % Inhibition 1 µM (PARK7 [2]; pure compounds): 94.6% | inhibition of DUBs in cells (DUBs): showed inhibition of one or more DUBs, mainly UCHL1

Continued, in another order:

labeling of PARK7 in cells (PARK7 [5]; HEK293T and A549 cells): clear band around 25 kDa | specificity of labeling (PARK7 siRNA depletion) (PARK7 [5]; HEK293T and A549 cells, siPARK7 48 h, then 5 μM for 4 h): unspecific labeling of other proteins | probe concentration giving complete labeling of recombinant PARK7 (Coomassie band shift) (PARK7 [6]): 2 µM
Compound: CC1=CC(C)=[N+]2C1=C(CCCCc1cn(-c3ccc(F)c(C(=O)N4CCc5nc(NC(=O)[C@@H]6CCN(C#N)C6)sc5C4)c3)nn1)c1c(C)cc(C)n1[B-]2(F)F [JYQ-196]
cellular PARK7 labeling efficiency over time (PARK7 [5]): complete labeling of cellular PARK7 after 4 h incubation

labeling of PARK7 in cells (PARK7 [5]; HEK293T and A549 cells): clear band around 25 kDa | probe concentration giving complete labeling of recombinant PARK7 (Coomassie band shift) (PARK7 [6]): 1 µM
Compound: CC[N+]1=C(/C=C/C=C/C=C2/N(CCCCCC(=O)NCCCc3cn(-c4ccc(F)c(C(=O)N5CCc6nc(NC(=O)[C@@H]7CCN(C#N)C7)sc6C5)c4)nn3)c3ccc(S(=O)(=O)O)cc3C2(C)C)C(C)(C)c2cc(S(=O)(=O)[O-])ccc21 [JYQ-197]
cellular PARK7 labeling efficiency over time (PARK7 [5]): labeled a small portion of cellular PARK7 even after 24 h incubation

IC50 (PARK7 [4]): 130 nM
Compound: O=C1C(=O)N(CCc2ccccc2)c2ccc(F)cc21 [STK793590]
